Here are results for eight compounds from PubChem BioAssay (NCI).

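Values below derive from 48-hour exposures of cells grown in 96-well plates, with endpoints linearly interpolated between the two concentrations bracketing the appropriate inhibition level. TGI: concentration producing complete growth inhibition.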

Some test systems named below: MCF7 breast; ACHN renal; UACC-62 melanoma; SK-MEL-28 melanoma; CAKI-1 renal; BT-549 breast; MDA-MB-231 breast; NCI/ADR-RES ovarian; MDA-N; MDA-MB-435; HOP-62 NSCLC; SNB-19 CNS; MALME-3M melanoma; OVCAR-4 ovarian; HS 578T breast; HCC-2998 colon; SK-MEL-5 melanoma; HL-60(TB) leukemia; CCRF-CEM leukemia.
What all share (assay): NCI tumour cell line growth inhibition, 48 h

For `COC(=O)C(Cc1ccc(Oc2cc(CC(NC(=O)c3ccccc3)C(=O)OC)ccc2OC)cc1)NC(=O)c1ccccc1` (stereo not given), the TGI is above 100 µM with MCF7 breast; above 55 µM with ACHN renal; 42.7 µM in the assay on UACC-62 melanoma; above 52.4 µM in the assay on SK-MEL-28 melanoma; above 100 µM in the assay with CAKI-1 renal; above 81.3 µM in the assay on BT-549 breast. Also, the TGI is above 78.8 µM in the assay with MDA-MB-231 breast; above 100 µM with NCI/ADR-RES ovarian; 34 µM in the assay with MDA-N; above 63.5 µM with MDA-MB-435; above 100 µM in the assay with HOP-62 NSCLC; above 100 µM with SNB-19 CNS. Also, the TGI in the assay on MALME-3M melanoma is 29.8 µM; in the assay on OVCAR-4 ovarian it was above 72.5 µM; with HS 578T breast, 61.8 µM; with HCC-2998 colon, above 100 µM; in the assay with SK-MEL-5 melanoma, 32.9 µM; in the assay on HL-60(TB) leukemia, above 57.3 µM.
`O=S(Nc1ccccc1)c1ccc(Cl)c(Cl)c1` (stereo not given): the TGI is above 100 µM in the assay with MCF7 breast; above 100 µM with ACHN renal; 64.6 µM with UACC-62 melanoma; above 100 µM in the assay with SK-MEL-28 melanoma; 54.4 µM in the assay on BT-549 breast; above 100 µM with MDA-MB-231 breast. The TGI with NCI/ADR-RES ovarian was above 100 µM; in the assay with MDA-N, above 100 µM; in the assay with MDA-MB-435, 92.9 µM; in the assay with CCRF-CEM leukemia, above 100 µM; in the assay with HOP-62 NSCLC it was 79.1 µM; in the assay on SNB-19 CNS, above 100 µM. For the same compound, the TGI in the assay with MALME-3M melanoma is above 100 µM; with OVCAR-4 ovarian it was above 100 µM; with HS 578T breast it was 84.7 µM; in the assay on HCC-2998 colon, above 100 µM; in the assay on SK-MEL-5 melanoma it was 62.5 µM; with HL-60(TB) leukemia, above 100 µM.
As for `S=C1CSc2c(ccc3ccccc23)N1`, the TGI in the assay on MCF7 breast, in the assay with ACHN renal, in the assay on UACC-62 melanoma, in the assay on SK-MEL-28 melanoma, in the assay on CAKI-1 renal and with BT-549 breast was above 100 µM each time. Moreover, the TGI in the assay on MDA-MB-231 breast, in the assay with NCI/ADR-RES ovarian, in the assay on MDA-N, in the assay on MDA-MB-435, with CCRF-CEM leukemia and in the assay with HOP-62 NSCLC was above 100 µM throughout. Moreover, the TGI with SNB-19 CNS, in the assay on MALME-3M melanoma, in the assay with OVCAR-4 ovarian, in the assay on HS 578T breast, in the assay on SK-MEL-5 melanoma and in the assay with HL-60(TB) leukemia was above 100 µM in each case.
Regarding `O=c1n(-c2ccccc2)c(=O)n2n1C1Cc3ccccc3C12` (stereo not given), the TGI with MCF7 breast, with ACHN renal, in the assay with UACC-62 melanoma, with SK-MEL-28 melanoma, in the assay on CAKI-1 renal and in the assay on BT-549 breast was above 100 µM in each case. Besides, the TGI with MDA-MB-231 breast, in the assay on NCI/ADR-RES ovarian, in the assay on MDA-N, in the assay on MDA-MB-435, with CCRF-CEM leukemia and in the assay with HOP-62 NSCLC was above 100 µM throughout. For the same compound, the TGI in the assay with SNB-19 CNS, in the assay with HS 578T breast, in the assay with SK-MEL-5 melanoma and in the assay on HL-60(TB) leukemia was above 100 µM in each case.
Take `NC1CC(Cl)c2c(Cl)sc(Cl)c21` (stereo not given): the TGI in the assay with MCF7 breast, in the assay with ACHN renal, in the assay with UACC-62 melanoma, in the assay with SK-MEL-28 melanoma, in the assay on CAKI-1 renal and with BT-549 breast was above 100 µM each time. The TGI with MDA-MB-231 breast, in the assay with NCI/ADR-RES ovarian, in the assay with MDA-N, in the assay with MDA-MB-435, with CCRF-CEM leukemia and with HOP-62 NSCLC was above 100 µM in each case. The TGI with MALME-3M melanoma, with OVCAR-4 ovarian, with HS 578T breast, with HCC-2998 colon, in the assay on SK-MEL-5 melanoma and in the assay on HL-60(TB) leukemia was above 100 µM throughout.
Take `CC1=C(C(=O)N(C(C)C)C(C)C)CC(C(=O)N(C(C)C)C(C)C)=C(C)N1`: the TGI in the assay on MCF7 breast, in the assay with ACHN renal, in the assay on UACC-62 melanoma, in the assay on CAKI-1 renal, with BT-549 breast and in the assay with MDA-MB-231 breast was above 100 µM throughout. For the same compound, the TGI in the assay on NCI/ADR-RES ovarian, in the assay on MDA-N, in the assay with MDA-MB-435, with CCRF-CEM leukemia, in the assay on HOP-62 NSCLC and in the assay with SNB-19 CNS was above 100 µM each time. Besides, the TGI in the assay on OVCAR-4 ovarian, in the assay on HS 578T breast, in the assay with HCC-2998 colon, in the assay with SK-MEL-5 melanoma and in the assay with HL-60(TB) leukemia was above 100 µM in each case.
As to `Cc1ccc(C2SC(N)=Nc3c2c(C)nn3C(=O)c2ccccc2O)cc1` (stereo not given), the TGI with MCF7 breast is above 10 µM; with ACHN renal, above 10 µM; in the assay on UACC-62 melanoma, 4.27 µM; with SK-MEL-28 melanoma, above 10 µM; in the assay on CAKI-1 renal, above 10 µM; in the assay with BT-549 breast, above 10 µM. In addition, the TGI with MDA-MB-231 breast, with NCI/ADR-RES ovarian, in the assay with MDA-N, with MDA-MB-435, in the assay on CCRF-CEM leukemia and with HOP-62 NSCLC was above 10 µM each time. The TGI is above 10 µM in the assay with SNB-19 CNS; above 10 µM in the assay on MALME-3M melanoma; above 10 µM with OVCAR-4 ovarian; 5.27 µM in the assay with HS 578T breast; above 10 µM in the assay with SK-MEL-5 melanoma.
For `COc1ccc2c(c1)-c1[nH]c3ccc(OC)cc3c1CC2`, the TGI in the assay with MCF7 breast is 89.7 µM; in the assay with ACHN renal, 36.5 µM; in the assay with UACC-62 melanoma it was 28.6 µM; in the assay with SK-MEL-28 melanoma it was 32.4 µM; with CAKI-1 renal, 34.8 µM; with BT-549 breast, 32.9 µM. The TGI in the assay on MDA-MB-231 breast amounted to 35 µM; with NCI/ADR-RES ovarian, 24.8 µM; with MDA-N, 30.2 µM; in the assay with MDA-MB-435, 40.2 µM; in the assay with CCRF-CEM leukemia, 80.6 µM; in the assay on HOP-62 NSCLC it was 30.9 µM. Also, the TGI in the assay on SNB-19 CNS turned out to be 30.1 µM; in the assay with MALME-3M melanoma it was 28.7 µM; in the assay on OVCAR-4 ovarian, 29.4 µM; in the assay with HS 578T breast it was 28 µM; in the assay with HCC-2998 colon, 31.4 µM; with SK-MEL-5 melanoma, 30.9 µM.
